Holding throughout (type): in vivo
In experiment [1] the test system is Ipomoea hederacea (IPOHE). Nature of the experiment: Pre-Emergence Test (herbicidal, glasshouse pots). As to conditions: rate 1000 g/ha, evaluated after 13 days, five-point scale.
The subject of experiment [2] is Zea mays (ZEAMX). Nature of the experiment: Pre-Emergence Test (herbicidal, glasshouse pots). As to conditions: rate 1000 g/ha, evaluated after 13 days, five-point scale.
Experiment [3] concerns Zea mays (ZEAMX). Nature of the experiment: Post-Emergence Test (herbicidal, glasshouse pots). As to conditions: rate 1000 g/ha; evaluated after 13 days. The method, then: (§1) Seeds of a variety of test species are sown in standard soil in pots (Setaria faberi (SETFA), Ipomoea hederacea (IPOHE), Echinochloa crus-galli (ECHCG), (Amaranthus retoflexus (AMARE), Zea mays (ZEAMX), and Amaranthus palmeri (AMAPA)). After 8 days cultivation under controlled conditions in a glasshouse (at 24° C./16° C., day/night; 14 hours light; 65% humidity), the plants arm sprayed with an aqueous spray solution derived from the formulation of the technical active ingredient in acetone/water (50:50) solution containing 0.5% Tween 20 (polyoxyethylene sorbitan monolaurate, CAS RN 9005-84-5). Rate of application is shown in g/ha in the tables below. The test plants are then grown in a glasshouse under controlled conditions in a glasshouse (at 24° C./16° C., day/night; 14 hours light; 65% humidity) and watered twice daily. After 13 days the test is evaluated for the percentage damage caused to the plant. The biological activities are shown in the following table on a five-point scale (5=81-100%; 4=61-80%; 3=41-60%; 2=21-40%; 1=0-20%; -=not tested).

For experiment [4], the system named is Ipomoea hederacea (IPOHE). Briefly: Post-Emergence Test (herbicidal, glasshouse pots). As to conditions: rate 1000 g/ha; evaluated after 13 days. The method, then: as §1
Experiment [5] concerns Echinochloa crus-galli (ECHCG). Briefly: Post-Emergence Test (herbicidal, glasshouse pots). As to conditions: rate 1000 g/ha; evaluated after 13 days. On the procedure: as §1
Experiment [6] relates to Amaranthus retoflexus (AMARE). Briefly: Post-Emergence Test (herbicidal, glasshouse pots). As to conditions: rate 1000 g/ha; evaluated after 13 days. On the procedure:
as §1

Experiment [7] relates to Amaranthus palmeri (AMAPA). Briefly: Post-Emergence Test (herbicidal, glasshouse pots). Particulars: rate 1000 g/ha; evaluated after 13 days. The method, then: as §1
The subject of experiment [8] is Amaranthus palmeri (AMAPA). Briefly: Pre-Emergence Test (herbicidal, glasshouse pots). As to conditions: rate 1000 g/ha, evaluated after 13 days, five-point scale.
The subject of experiment [9] is Echinochloa crus-galli (ECHCG). Nature of the experiment: Pre-Emergence Test (herbicidal, glasshouse pots). Particulars: rate 1000 g/ha, evaluated after 13 days, five-point scale.
Experiment [10] concerns Amaranthus retoflexus (AMARE). Briefly: Pre-Emergence Test (herbicidal, glasshouse pots). Particulars: rate 1000 g/ha, evaluated after 13 days, five-point scale.

For `CCn1c(Oc2cncc(Cl)c2)cc(=O)c(C(=O)O)c1-c1ccc(Cl)c(Cl)c1` [Compound 13, 6-[(5-chloro-3-pyridyl)oxy]-2-(3,4-dichlorophenyl)-1-ethyl-4-oxo-pyridine-3-carboxylic acid], the “percentage damage caused to the plant, IPHOE” value in experiment [1] was 5 (5=81-100%). For the same molecule, the “percentage damage caused to the plant, ZEAMX” value with Zea mays (ZEAMX) [2] was 2 (2=21-40%). In the experiment with Zea mays (ZEAMX) [3], the “Post-Emergence Test ZEAMX percentage damage (five-point scale)” value is listed as 4 (4=61-80%). Moreover, the “Post-Emergence Test IPHOE percentage damage (five-point scale)” value in [4] is listed as 4 (4=61-80%). Further, in experiment [5], the “Post-Emergence Test ECHCG percentage damage (five-point scale)” value is listed as 5 (5=81-100%). Besides, the “Post-Emergence Test AMARE percentage damage (five-point scale)” value in [6] is 5 (5=81-100%). For the same molecule, the “Post-Emergence Test AMAPA percentage damage (five-point scale)” value in experiment [7] was 4 (4=61-80%). In experiment [8], the “percentage damage caused to the plant, AMAPA” value is recorded as 4 (4=61-80%). For the same molecule, the “percentage damage caused to the plant, ECHCG” value in [9] was 4 (4=61-80%). In addition, the “percentage damage caused to the plant, AMARE” value in [10] is given as 5 (5=81-100%).

Turning to `CCn1c(Sc2ccc(F)cc2)cc(=O)c(C(=O)O)c1-c1ccc(Cl)c(Cl)c1` [Compound 10, 2-(3,4-dichlorophenyl)-1-ethyl-6-(4-fluorophenyl)sulfanyl-4-oxo-pyridine-3-carboxylic acid], the “percentage damage caused to the plant, IPHOE” value in [1] is listed as 2 (2=21-40%). In the experiment on Zea mays (ZEAMX) [2], the “percentage damage caused to the plant, ZEAMX” value came to 0. Also, the “Post-Emergence Test ZEAMX percentage damage (five-point scale)” value in the experiment on Zea mays (ZEAMX) [3] is recorded as 1 (1=0-20%). Also, the “Post-Emergence Test IPHOE percentage damage (five-point scale)” value in experiment [4] is reported as 2 (2=21-40%). Further, the “Post-Emergence Test ECHCG percentage damage (five-point scale)” value in [5] was 2 (2=21-40%). In experiment [6], the “Post-Emergence Test AMARE percentage damage (five-point scale)” value is on record as 1 (1=0-20%). For the same molecule, the “Post-Emergence Test AMAPA percentage damage (five-point scale)” value in experiment [7] was 1 (1=0-20%). Besides, the “percentage damage caused to the plant, AMAPA” value in experiment [8] was 0. Further, the “percentage damage caused to the plant, ECHCG” value in [9] is on record as 2 (2=21-40%). Besides, in experiment [10], the “percentage damage caused to the plant, AMARE” value is reported as 1 (1=0-20%).

In the case of `CCn1c(Oc2ccc(Cl)cc2)cc(=O)c(C(=O)O)c1-c1ccc(Cl)c(Cl)c1` [Compound 19, 6-(4-chlorophenoxy)-2-(3,4-dichlorophenyl)-1-ethyl-4-oxo-pyridine-3-carboxylic acid], the “percentage damage caused to the plant, IPHOE” value in experiment [1] was 1 (1=0-20%). The “percentage damage caused to the plant, ZEAMX” value in the experiment with Zea mays (ZEAMX) [2] is recorded as 1 (1=0-20%). Besides, the “Post-Emergence Test ZEAMX percentage damage (five-point scale)” value in the experiment on Zea mays (ZEAMX) [3] was 3 (3=41-60%). Besides, the “Post-Emergence Test IPHOE percentage damage (five-point scale)” value in experiment [4] is given as 3 (3=41-60%). The “Post-Emergence Test ECHCG percentage damage (five-point scale)” value in experiment [5] is reported as 3 (3=41-60%). The “Post-Emergence Test AMARE percentage damage (five-point scale)” value in [6] is 5 (5=81-100%). Besides, in [7], the “Post-Emergence Test AMAPA percentage damage (five-point scale)” value is on record as 4 (4=61-80%). Besides, in [8], the “percentage damage caused to the plant, AMAPA” value stood at 0. Moreover, in [9], the “percentage damage caused to the plant, ECHCG” value is listed as 4 (4=61-80%). Moreover, in [10], the “percentage damage caused to the plant, AMARE” value is on record as 0.

Consider `CCn1c(Nc2ccc(C)c(C(F)(F)F)c2)cc(=O)c(C(=O)O)c1-c1ccc(Cl)c(Cl)c1` [Compound 23, 2-(3,4-dichlorophenyl)-1-ethyl-6-[4-methyl-3-(trifluoromethyl)anilino]-4-oxo-pyridine-3-carboxylic acid], for which the “percentage damage caused to the plant, IPHOE” value in experiment [1] was found to be 0. Besides, in the experiment with Zea mays (ZEAMX) [2], the “percentage damage caused to the plant, ZEAMX” value is given as 0. For the same molecule, the “Post-Emergence Test ZEAMX percentage damage (five-point scale)” value in the experiment with Zea mays (ZEAMX) [3] is reported as 0. The “Post-Emergence Test IPHOE percentage damage (five-point scale)” value in [4] was found to be 0. In [5], the “Post-Emergence Test ECHCG percentage damage (five-point scale)” value came to 0. Further, the “Post-Emergence Test AMARE percentage damage (five-point scale)” value in [6] is listed as 1 (1=0-20%). The “Post-Emergence Test AMAPA percentage damage (five-point scale)” value in experiment [7] stood at 0. Moreover, the “percentage damage caused to the plant, AMAPA” value in experiment [8] is 0. Moreover, in [9], the “percentage damage caused to the plant, ECHCG” value is 1 (1=0-20%). Moreover, the “percentage damage caused to the plant, AMARE” value in [10] is 1 (1=0-20%).

On to `CCn1c(Oc2cccc(Cl)c2Cl)cc(=O)c(C(=O)O)c1-c1ccc(Cl)c(Cl)c1` [Compound 17, 6-(2,3-dichlorophenoxy)-2-(3,4-dichlorophenyl)-1-ethyl-4-oxo-pyridine-3-carboxylic acid], for which the “percentage damage caused to the plant, IPHOE” value in [1] was determined as 0. For the same molecule, the “percentage damage caused to the plant, ZEAMX” value in the experiment with Zea mays (ZEAMX) [2] is given as 1 (1=0-20%). Besides, the “Post-Emergence Test ZEAMX percentage damage (five-point scale)” value with Zea mays (ZEAMX) [3] was 1 (1=0-20%). Also, the “Post-Emergence Test IPHOE percentage damage (five-point scale)” value in [4] is recorded as 0. In addition, in [5], the “Post-Emergence Test ECHCG percentage damage (five-point scale)” value is given as 1 (1=0-20%). The “Post-Emergence Test AMARE percentage damage (five-point scale)” value in experiment [6] was 1 (1=0-20%). Besides, the “Post-Emergence Test AMAPA percentage damage (five-point scale)” value in experiment [7] is 1 (1=0-20%). In addition, in [8], the “percentage damage caused to the plant, AMAPA” value came to 0. Also, the “percentage damage caused to the plant, ECHCG” value in [9] came to 0. Moreover, in [10], the “percentage damage caused to the plant, AMARE” value is on record as 0.

Regarding `CCn1c(Oc2cccnc2F)cc(=O)c(C(=O)O)c1-c1ccc(Cl)c(Cl)c1` [Compound 34, 2-(3,4-dichlorophenyl)-1-ethyl-6-[(2-fluoro-3-pyridyl)oxy]-4-oxo-pyridine-3-carboxylic acid], in [1], the “percentage damage caused to the plant, IPHOE” value was 3 (3=41-60%). In the experiment on Zea mays (ZEAMX) [2], the “percentage damage caused to the plant, ZEAMX” value is recorded as 4 (4=61-80%). In addition, the “Post-Emergence Test ZEAMX percentage damage (five-point scale)” value in the experiment on Zea mays (ZEAMX) [3] is reported as 3 (3=41-60%). In [4], the “Post-Emergence Test IPHOE percentage damage (five-point scale)” value is on record as 2 (2=21-40%). The “Post-Emergence Test ECHCG percentage damage (five-point scale)” value in [5] is reported as 4 (4=61-80%). Moreover, the “Post-Emergence Test AMARE percentage damage (five-point scale)” value in experiment [6] is recorded as 3 (3=41-60%). The “Post-Emergence Test AMAPA percentage damage (five-point scale)” value in experiment [7] was 3 (3=41-60%). The “percentage damage caused to the plant, AMAPA” value in experiment [8] is listed as 2 (2=21-40%). The “percentage damage caused to the plant, ECHCG” value in experiment [9] was 4 (4=61-80%). For the same molecule, in experiment [10], the “percentage damage caused to the plant, AMARE” value was 3 (3=41-60%).

As for `CCn1c(Nc2ncc(F)cc2F)cc(=O)c(C(=O)O)c1-c1ccc(Cl)c(Cl)c1` [Compound 31, 2-(3,4-dichlorophenyl)-6-[(3,5-difluoro-2-pyridyl)amino]-1-ethyl-4-oxo-pyridine-3-carboxylic acid], the “percentage damage caused to the plant, IPHOE” value in experiment [1] is 1 (1=0-20%). Besides, the “percentage damage caused to the plant, ZEAMX” value in the experiment on Zea mays (ZEAMX) [2] is listed as 1 (1=0-20%). In addition, the “Post-Emergence Test ZEAMX percentage damage (five-point scale)” value in the experiment with Zea mays (ZEAMX) [3] came to 0. In experiment [4], the “Post-Emergence Test IPHOE percentage damage (five-point scale)” value was 2 (2=21-40%). For the same molecule, the “Post-Emergence Test ECHCG percentage damage (five-point scale)” value in [5] was 1 (1=0-20%). Moreover, the “Post-Emergence Test AMARE percentage damage (five-point scale)” value in [6] is listed as 2 (2=21-40%). In addition, in [7], the “Post-Emergence Test AMAPA percentage damage (five-point scale)” value was 2 (2=21-40%). The “percentage damage caused to the plant, AMAPA” value in experiment [8] is reported as 0. For the same molecule, the “percentage damage caused to the plant, ECHCG” value in experiment [9] is 1 (1=0-20%). Also, in experiment [10], the “percentage damage caused to the plant, AMARE” value is listed as 1 (1=0-20%).

`CCn1c(Oc2ccc(OC)cc2)cc(=O)c(C(=O)O)c1-c1ccc(Cl)c(Cl)c1` [Compound 11, 2-(3,4-dichlorophenyl)-1-ethyl-6-(4-methoxyphenoxy)-4-oxo-pyridine-3-carboxylic acid]: the “percentage damage caused to the plant, IPHOE” value in [1] is given as 5 (5=81-100%). For the same molecule, in the experiment with Zea mays (ZEAMX) [2], the “percentage damage caused to the plant, ZEAMX” value was 1 (1=0-20%). Moreover, the “Post-Emergence Test ZEAMX percentage damage (five-point scale)” value with Zea mays (ZEAMX) [3] was 2 (2=21-40%). Also, in experiment [4], the “Post-Emergence Test IPHOE percentage damage (five-point scale)” value is listed as 3 (3=41-60%). The “Post-Emergence Test ECHCG percentage damage (five-point scale)” value in experiment [5] is listed as 1 (1=0-20%). Besides, the “Post-Emergence Test AMARE percentage damage (five-point scale)” value in experiment [6] is 5 (5=81-100%). In [7], the “Post-Emergence Test AMAPA percentage damage (five-point scale)” value is given as 5 (5=81-100%). Besides, the “percentage damage caused to the plant, AMAPA” value in experiment [8] was 1 (1=0-20%). In addition, in experiment [9], the “percentage damage caused to the plant, ECHCG” value is on record as 0. For the same molecule, the “percentage damage caused to the plant, AMARE” value in [10] is recorded as 2 (2=21-40%).

The values are drawn from patent US20250324971A1, “HERBICIDAL DERIVATIVES” (SYNGENTA CROP PROTECTION AG, priority 2022, published 2025).
